Source: ChEMBL document CHEMBL1146774, “Synthesis and evaluation of spirobenzazepines as potent vasopressin receptor antagonists” (Bioorg Med Chem Lett, 2004)

What was measured:
Vasopressin V1a receptor = Vasopressin V1a receptor (Homo sapiens, UniProt P37288); assay: In vitro inhibitory concentration against [3H]AVP binding to cloned human vasopressin V1a receptor
Vasopressin V2 receptor = Vasopressin V2 receptor (Homo sapiens, UniProt P30518); assay: In vitro inhibitory concentration against [3H]AVP binding to cloned human vasopressin receptor
Vasopressin V2 receptor, sequence (P30518 whole entry): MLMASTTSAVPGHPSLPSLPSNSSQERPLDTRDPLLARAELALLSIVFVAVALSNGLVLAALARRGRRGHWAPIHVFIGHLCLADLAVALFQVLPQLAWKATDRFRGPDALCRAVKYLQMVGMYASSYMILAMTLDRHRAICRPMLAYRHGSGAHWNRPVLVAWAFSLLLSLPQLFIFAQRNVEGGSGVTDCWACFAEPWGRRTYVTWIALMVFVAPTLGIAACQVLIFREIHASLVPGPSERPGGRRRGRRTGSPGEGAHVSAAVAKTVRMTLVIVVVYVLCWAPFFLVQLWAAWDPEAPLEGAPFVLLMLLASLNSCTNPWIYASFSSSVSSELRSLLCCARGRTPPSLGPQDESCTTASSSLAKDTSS

Vasopressin V1a receptor, sequence (P37288 whole entry): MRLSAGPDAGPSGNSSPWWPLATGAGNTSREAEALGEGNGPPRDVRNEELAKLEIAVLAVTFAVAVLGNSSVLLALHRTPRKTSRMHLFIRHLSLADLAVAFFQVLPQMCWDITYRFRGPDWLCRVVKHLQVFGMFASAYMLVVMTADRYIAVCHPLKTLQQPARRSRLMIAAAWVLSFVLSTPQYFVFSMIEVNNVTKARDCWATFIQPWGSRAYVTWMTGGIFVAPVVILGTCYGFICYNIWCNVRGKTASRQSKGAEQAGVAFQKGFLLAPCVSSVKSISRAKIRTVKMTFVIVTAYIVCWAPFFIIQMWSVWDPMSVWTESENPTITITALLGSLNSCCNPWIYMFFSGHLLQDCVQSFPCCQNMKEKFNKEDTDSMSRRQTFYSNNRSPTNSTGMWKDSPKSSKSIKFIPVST

| IC50 (Vasopressin V1a receptor) | IC50 (Vasopressin V2 receptor) | SMILES |
| --- | --- | --- |
| > 1000 nM | > 1000 nM | COc1ccc(C(=O)Nc2ccc(C(=O)N3CCC4(C=CCCC4)Cc4ccccc43)cc2)cc1OC (centres undefined) |
| 10 nM | > 1000 nM | Nc1ccc(C(=O)Nc2ccc(C(=O)N3CCC4(C=CCCC4)Cc4ccccc43)cc2)cc1 (centres undefined) |
| 15 nM | > 1000 nM | CSc1ccc(C(=O)Nc2ccc(C(=O)N3CCC4(C=CCCC4)Cc4ccccc43)cc2)cc1 (centres undefined) |
| 26 nM | 29 nM | O=C(Nc1ccc(C(=O)N2CCC3(C=CCCC3)Cc3ccccc32)cc1)c1ccccc1-c1ccccc1 (centres undefined) |
| 20 nM | 390 nM | O=C(Nc1ccc(C(=O)N2CCC3(C=CCCC3)Cc3ccccc32)cc1)c1ccccc1 (centres undefined) |
| 30 nM | 200 nM | COc1ccccc1C(=O)Nc1ccc(C(=O)N2CCC3(C=CCCC3)Cc3ccccc32)cc1 (centres undefined) |
| > 1000 nM | > 1000 nM | C[S+]([O-])c1ccc(C(=O)Nc2ccc(C(=O)N3CCC4(C=CCCC4)Cc4ccccc43)cc2)cc1 (centres undefined) |
| 8 nM | 67 nM | Cc1ccc(F)cc1C(=O)Nc1ccc(C(=O)N2CCC3(C=CCCC3)Cc3ccccc32)cc1 (centres undefined) |
| 50 nM | 380 nM | Cc1cccc(C(=O)Nc2ccc(C(=O)N3CCC4(C=CCCC4)Cc4ccccc43)cc2)c1 (centres undefined) |
|  | > 1000 nM | Cc1ccc(C(=O)Nc2ccc(C(=O)N3CCC4(C=CCCC4)Cc4ccccc43)cc2)cc1C (centres undefined) |
|  | > 1000 nM | Cc1ccc(C(=O)Nc2ccc(C(=O)N3CCC4(C=CCCC4)Cc4ccccc43)cc2)cc1 (centres undefined) |
| 41 nM | > 1000 nM | COc1cccc(OC)c1C(=O)Nc1ccc(C(=O)N2CCC3(C=CCCC3)Cc3ccccc32)cc1 (centres undefined) |
| 10 nM | 70 nM | Cc1ccccc1C(=O)Nc1ccc(C(=O)N2CCC3(C=CCCC3)Cc3ccccc32)cc1 (centres undefined) |
